Paper PMC10221314 (Pharmaceuticals, 2023)
Entries after “also recorded” stand apart in the source; their conditions may differ. Values belong to the compound of their own block, whether it stands above or below them.

Tests used:
[1] = test system: HFD mice; design: method as in PMID 30635917; conditions: 100 mg·Kg^−1; cited from earlier work
[2] = test system: FXR downstream genes; experiment: mRNA expression of FXR downstream genes in HepG2 cells (qRT-PCR); assay type: cell-based; conditions: 50 μM, 24 h
Description: (§1) Cells and liver tissue samples were subjected to RNA extraction and purification, followed by reverse transcription of equal amounts of total RNA into […] using a Transcriptor First Strand cDNA Synthesis Kit (Roche). The relative expression levels of the target gene were determined using TaqMan probe/primers with an ABI Q3 quantitative real-time PCR system, while GAPDH/Gapdh was utilized as an internal control for mRNA expression. The fold change in the expression of the target mRNA was calculated using Equation 2^−ΔΔCt.
(A) Relative mRNA level of SHP; (B) Relative mRNA level of BSEP; (C) Relative mRNA level of CYP7A1; (D) Relative mRNA level of SREBP1c; (E) Relative mRNA level of PEPCK; (F) Expression level of G6Pase. HepG2 cells were seeded in a 6-well plate and treated with DMSO and varying concentrations of compound 10b for 24 h with or without 50 μM of 1. The mRNA levels of SHP, BSEP, CYP7A1, SREBP1c, PEPCK, and G6Pase were quantified and normalized to β-actin expression.

[3] = test system: FXR downstream genes; conditions: previous study; cited from earlier work
[4] = molecular target: T1, FXR (Homo sapiens, UniProt Q96RI1); experiment: Yeast one-hybrid assay of FXR antagonistic activity in HEK-293T cells; assay type: cell-based; conditions: HEK-293T cells; CDCA (50 μM) as agonist; mean ± SE of three independent tests
T1 construct: a fusion plasmid of Gal4 DBD-NR-LBD, which included PPARα, PPARβ, PPARγ, RXRα, RXRβ, RXRγ, LXRα, LXRβ, GPBAR, PXR, and FXR; expressed in transfected cells; host or cells: HEK-293T
T1 sequence (Q96RI1 262-486 limits assumed): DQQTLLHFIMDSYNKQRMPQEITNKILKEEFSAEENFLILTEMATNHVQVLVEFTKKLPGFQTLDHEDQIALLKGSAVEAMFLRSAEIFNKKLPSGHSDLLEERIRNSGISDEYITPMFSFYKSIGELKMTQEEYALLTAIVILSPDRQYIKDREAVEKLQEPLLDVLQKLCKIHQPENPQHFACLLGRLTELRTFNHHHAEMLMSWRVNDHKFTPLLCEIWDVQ
Description: Cell counting: HEK-293T cells in logarithmic growth phase were digested with 0.25% trypsin, collected, and centrifuged. The trypsin-containing medium was discarded, and 2 mL of fresh phenol red-free DMEM medium containing 5% fetal bovine serum was added. The cells were then mixed with the medium to prepare a cell suspension and counted on a cell counting plate.
Cell plating: A determined number of cells were taken from the cell suspension, diluted with phenol red-free DMEM medium containing 5% fetal bovine serum, and plated at a concentration of 10,000 cells per well (100 µL medium) in a 96-well plate. The plate was then incubated at 37 °C and 5% CO2 for 24 h.
Cell transfection: Fresh phenol red-free DMEM medium was taken in a sterile environment, and the previously extracted pFXR-Binding plasmid and PG4.35[luc2P-9XGA4UAS-Hygro] plasmid were added. The mixture was stirred and allowed to stand at 23 °C for 3 min. Then, a 3% amount of transfection reagent was added to the mixture, and it was allowed to stand at 23 °C for 15 min. The mixture was then added to the 96-well plate at a volume of 10 µL per well and incubated at 37 °C in a 5% CO2 environment for 24 h.
The OA derivatives were prepared as 10 mM DMSO stock solutions and further diluted in a concentration gradient, with 10 µL added to each well. The final concentrations of the derivatives ranged from 10 µM to 0.03 µM, with 7 concentration gradients using […] dilution. The test was set with 3 duplicated wells.
Antagonism activity test: The firefly-Renilla Dual Fluorescence Assay Kit (Promega, #E2940, Madison, WI, USA) was used to measure the antagonism activity of the OA derivatives. Firstly, the firefly fluorescence reagent was added to the 96-well plate at a volume of 70 µL per well and shaken in darkness for 15 min. Then, the fluorescence intensity was measured at a wavelength of 645 ± 30 nm in a microplate reader (BioTek, Winooski, VT, USA). Next, the volume of Renilla reagent was added to the 96-well plate at a volume of 70 µL per well and shaken in darkness for 15 min. The fluorescence intensity was then measured at a wavelength of 525 ± 20 nm.
Data processing: The fluorescence data of firefly were divided by the fluorescence data of Renilla to remove errors, and the antagonism efficiency was calculated using the following formula: antagonism efficiency (%) = [1 − (FCompds. − FDMSO)/(FCDCA − FDMSO)] × 100%. In the formula, F represents fluorescence intensity. The antagonistic efficiency data were obtained as a concentration–effect curve using Graphpad Prism 8.0 software, and the corresponding IC50 value was calculated.

[5] = design: method as in PMID 34970143; conditions: 120 mg·Kg^−1; cited from earlier work
[6] = test system: LX-2 cells; experiment: mRNA expression of liver fibrosis marker genes in TGFβ1-induced LX-2 cells; assay type: cell-based; conditions: 10 μM, induced by 2 ng·mL^−1 TGFβ1, 24 h
Description: as §1
(A–E) The LX-2 cells underwent a 24 h treatment of 2 ng·mL^−1 TGFβ1, with or without varying concentrations of candidate compounds, following FBS starvation. […] GAPDH/GAPDH was used as the loading control. The mean ± SD values were obtained from three independent assays. […] ANOVA was followed by Tukey’s test for statistical analysis.

[7] = test system: RXRα, RXRβ, RXRγ, LXRα, LXRβ, PXR, PPARα, PPARβ, PPARγ, and GPBAR; experiment: NR selectivity one-hybrid assay in HEK-293T cells (panel of metabolic NRs); assay type: cell-based; conditions: with corresponding agonists
Description: To assess the compound’s specificity, the mammalian one-hybrid assay was conducted. In this assay, HEK-293T cells were co-transfected with a fusion plasmid of Gal4 DBD-NR LBD (comprising RXRα, RXRβ, RXRγ, PPARα, PPARβ, PPARγ, LXRα, LXRβ, GPBAR, and PXR) and the UAS-TK-Luc reporter, followed by treatment with various concentrations of the compound. The positive control consisted of the corresponding nuclear receptor agonist, and the concentration used in the experiment was set to the EC50 of the agonist.
Figure 3 Compound 10b selectively antagonized FXR. The impact of compound 10b on various NRs was evaluated using a […] one-hybrid assay in HEK-293T cells. The cells were transiently co-transfected with a fusion plasmid of Gal4 DBD-NR-LBD, which included PPARα, PPARβ, PPARγ, RXRα, RXRβ, RXRγ, LXRα, LXRβ, GPBAR, PXR, and FXR, in combination with the UAS-TK-Luc reporter. […] The values are expressed as the means ± SE of three independent experiments. *: p < 0.05 vs. RA (relative agonist).

Structure (SMILES): C=C(C)[C@@H]1CC[C@]2(C(=O)O)CC[C@]3(C)[C@H](CC[C@@H]4[C@@]5(C)CC[C@H](O)C(C)(C)[C@@H]5CC[C@]43C)[C@@H]12 [BA, Betulinic acid]
liver TC levels [1]: reduce
liver TG levels [1]: reduce

expression of CYP7A1 (mRNA) [2]: decrease
Structure (SMILES): C[C@H](CCC(=O)O)[C@H]1CC[C@H]2[C@@H]3[C@H](O)C[C@@H]4C[C@H](O)CC[C@]4(C)[C@H]3CC[C@]12C [CDCA, Chenodeoxycholic acid, reference compound]

Structure (SMILES): CC(=O)CCCC(=O)OC1CC2C3(C)CCC(O)C(C)(C)C3CCC2(C)C2(C)CCC3(C(=O)O)CCC(C)(C)CC3C12 (stereo not shown) [Compound 7]
CYP7A1 gene expression [3]: downregulated; also recorded: significantly reduces
G6Pase expression [3]: significantly reduces
PEPCK expression [3]: significantly reduces

Structure (SMILES): CC(C)COC(=O)C(CCC(=O)OC1CC2C3(C)CCC(O)C(C)(C)C3CCC2(C)C2(C)CCC3(C(=O)O)CCC(C)(C)CC3C12)NC(=O)OC(C)(C)C [Compound 20e, 3β-hydroxy-12β-(4′-((tert-butoxycarbonyl)amide)-5′-isobutoxy-L-glutamate)oxy-13H-olean-28-oic acid]
IC50 [4]: 1000 ± 170 nM

Structure (SMILES): CCC(C)OC(=O)C(CCC(=O)OC1CC2C3(C)CCC(O)C(C)(C)C3CCC2(C)C2(C)CCC3(C(=O)O)CCC(C)(C)CC3C12)NC(=O)OC(C)(C)C [Compound 20f, 3β-hydroxy-12β-(4′-((tert-butoxycarbonyl)amide)-5′-(sec-butoxy)-L-glutamate)oxy-13H-olean-28-oic acid]
IC50 [4]: 1010 ± 180 nM

Structure (SMILES): CC1(C)CCC2(C(=O)O)CCC3(C)C(C(OC(=O)CCC(NC(=O)OC(C)(C)C)C(=O)OC4CCCC4)CC4C5(C)CCC(O)C(C)(C)C5CCC43C)C2C1 [Compound 20g, 3β-hydroxy-12β-(4′-((tert-butoxycarbonyl)amide)-5′-cyclopentyloxy-L-glutamate)oxy-13H-olean-28-oic acid]
IC50 [4]: 820 ± 110 nM

Structure (SMILES): C[C@@H]1CC[C@]2(C(=O)O[C@@H]3O[C@H](CO)[C@@H](O)[C@H](O)[C@H]3O)CC[C@]3(C)C(=CC[C@@H]4[C@@]5(C)CC[C@H](O)[C@](C)(C(=O)O)[C@@H]5CC[C@]43C)[C@@H]2[C@]1(C)O [IsA, Ilexsaponin A1]
liver TC levels [5]: reducing
liver TG [5]: reducing
serum TG [5]: reducing

Structure (SMILES): CC[C@H]1[C@@H](O)[C@@H]2[C@H](CC[C@]3(C)[C@@H]([C@H](C)CCC(=O)O)CC[C@@H]23)[C@@]2(C)CC[C@@H](O)C[C@@H]12 [OCA, obeticholic acid, reference compound]
mRNA expression of CTGF [6]: decreased

Structure (SMILES): C/C=C1\C(=O)C[C@H]2[C@@H]3CCC4=CC(=O)CC[C@]4(C)[C@H]3CC[C@]12C [guggulsterone, reference compound]
antagonism of metabolic NRs [7]: Most NRs were antagonized
mRNA expression of ACTA2 [6]: significantly decreased
mRNA expression of COL1A1 [6]: significantly decreased
